Marks after values point to notes of the source that are not given here.
Assays:
[1] = target: T1, dipeptidyl peptidase-4 (Homo sapiens, UniProt P27487); experiment: dipeptidyl peptidase-4 inhibitory activity test in vitro (DPP-4 inhibitor screening kit); type: biochemical
T1 construct: purchased
Source text: The above compounds are detected by DPP-4 inhibitor screening kit.

[2] = system: hyperglycemia KK-A^y mice; experiment: liver tissue section of hyperglycemia KK-A^y mice (HE); type: in vivo; conditions: FIG. 1, 10 and 20 mg/kg
Method: Detect the fasting glucose of male KK-A^y mice, which are 6-8 weeks with the weight of 28-32 g, and divide them into different groups according to the blood sugar level and body weight: (2) model control group, (3) which is administered by compound S13 with the dose of 1 mg/kg, (4) which is administered by compound S13 with the dose of 5 mg/kg, (5) which is administered by compound S13 with the dose of 10 mg/kg, (6) which is administered by compound S13 with the dose of 20 mg/kg, (7) which is administered by compound S28 with the dose of 1 mg/kg, (8) which is administered by compound S28 with the dose of 5 mg/kg, (9) which is administered by compound S28 with the dose of 10 mg/kg, (10) which is administered by compound S28 with the dose of 20 mg/kg, (11) which is administered by metformin with the dose of 8 g/kg, (12) which is administered by compound S13 with the dose of 2.5 mg/kg and metformin with the dose of 4 g/kg, (13) which is administered by compound S13 with the dose of 5 mg/kg and metformin with the dose of 4 g/kg, (14) which is administered by compound S28 with the dose of 2.5 mg/kg and metformin with the dose of […], (15) which is administered by compound S28 with the dose of 5 mg/kg and metformin with the dose of […]. Each group has 8 mice, and is administrated successively for 3 weeks. Model control group is given with equal amounts of 0.5% CMC-Na. […]

[3] = system: hyperglycemia KK-A^y mice; experiment: glucose tolerance test (OGTT) in hyperglycemia KK-A^y mice; type: in vivo; conditions: OGTT 12th day, glucose 2.0 g/kg oral
Method: (§1) KK-A^y mice are purchased from Chinese Academy of Medical Sciences & Peking Union Medical College Institute of Animal Studies. Experiments are carried out after adapting to the environment (T=20-24° C., constant humidity: 50-60%, 12 hours light exposure (8:00-20:00), soundproof, free feeding and drinking) for 1 week. Glucometer is purchased from Roche.
Each group has 8 mice, and is administrated successively for 3 weeks. Model control group is given with equal amounts of 0.5% CMC-Na.
3) Glucose tolerance test (OGTT): glucose tolerance is detected at the 12th day after administration. The mice are fasted for 12 hours and blood is collected (0 h). After being given with glucose (2.0 g/kg) by oral administration, blood is collected from tip of tail to detect the blood sugar level after 30 min, 60 min and 120 min respectively (see table 11).

[4] = system: hyperglycemia KK-A^y mice; experiment: blood lipid and liver function of hyperglycemia KK-A^y mice; type: in vivo; conditions: 3 weeks
Method: as §1, with “Materials: accurately weigh the 2 compounds S13 and S28 discussed in example 2, and then add 0.5% CMC-Na to make the solution of 5 mg/ml used for activity test. KK-A^y” for “KK-A^y”
Methods: 10 male C57 mice of 6-8 weeks of 20-22 g are used as normal control group (1). Detect the fasting glucose of male KK-A^y mice, which are 6-8 weeks with the weight of 28-32 g, and divide them into different groups according to the blood sugar level and body weight: (2) model control group, (3) which is administered by compound S13 with the dose of 1 mg/kg, (4) which is administered by compound S13 with the dose of 5 mg/kg, (5) which is administered by compound S13 with the dose of 10 mg/kg, (6) which is administered by compound S13 with the dose of 20 mg/kg, (7) which is administered by compound S28 with the dose of 1 mg/kg, (8) which is administered by compound S28 with the dose of 5 mg/kg, (9) which is administered by compound S28 with the dose of 10 mg/kg, (10) which is administered by compound S28 with the dose of 20 mg/kg, (11) which is administered by metformin with the dose of 8 g/kg, (12) which is administered by compound S13 with the dose of 2.5 mg/kg and metformin with the dose of 4 g/kg, (13) which is administered by compound S13 with the dose of 5 mg/kg and metformin with the dose of 4 g/kg, (14) which is administered by compound S28 with the dose of 2.5 mg/kg and metformin with the dose of […], (15) which is administered by compound S28 with the dose of 5 mg/kg and metformin with the dose of […]. Each group has 8 mice, and is administrated successively for 3 weeks. Model control group is given with equal amounts of 0.5% CMC-Na.
4) After the last administration, the mice are executed under anesthesia, and blood is taken to be centrifuged at 3000 rpm in 4[…]. Serum total cholesterol, low density lipoprotein and triglyceride TG are detected.

T1 sequence (P27487 whole entry, species assumed): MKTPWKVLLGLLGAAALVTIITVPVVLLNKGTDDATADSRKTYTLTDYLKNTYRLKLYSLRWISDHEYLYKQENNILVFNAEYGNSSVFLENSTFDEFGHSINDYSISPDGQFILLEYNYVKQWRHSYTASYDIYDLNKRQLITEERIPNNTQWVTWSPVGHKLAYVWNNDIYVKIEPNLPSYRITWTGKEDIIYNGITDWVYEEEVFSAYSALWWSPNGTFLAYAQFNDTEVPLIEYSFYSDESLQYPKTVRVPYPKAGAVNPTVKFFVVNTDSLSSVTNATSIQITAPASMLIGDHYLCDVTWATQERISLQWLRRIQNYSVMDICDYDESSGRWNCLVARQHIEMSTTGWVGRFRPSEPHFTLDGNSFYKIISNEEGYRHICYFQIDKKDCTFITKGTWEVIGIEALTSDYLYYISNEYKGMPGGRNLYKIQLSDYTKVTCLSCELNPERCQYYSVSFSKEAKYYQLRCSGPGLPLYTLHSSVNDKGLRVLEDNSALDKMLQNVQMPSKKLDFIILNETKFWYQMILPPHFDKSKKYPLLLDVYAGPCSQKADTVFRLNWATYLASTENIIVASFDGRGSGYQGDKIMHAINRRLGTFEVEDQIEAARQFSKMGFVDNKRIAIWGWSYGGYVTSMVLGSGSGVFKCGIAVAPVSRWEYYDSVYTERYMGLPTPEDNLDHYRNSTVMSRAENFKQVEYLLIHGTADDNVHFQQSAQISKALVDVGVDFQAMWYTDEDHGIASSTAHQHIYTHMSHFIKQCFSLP

CC(C)=CCC/C(C)=C/CCC1=C[C@H](c2cc(O)ccc2O)OC1=O [S13, (R,E)-5-(2,5-dihydroxyphenyl)-3-(4,8-dimethylnona-3,7-dien-1-yl)furan-2(5H)-one]
IC50 [1]: 4.5 µM
fat vacuole in hepatocyte (liver tissue section, HE) [2]: almost disappear
glucose tolerance, blood sugar 0 min ([3]; 1 mg/kg, groups 3, 7): 9.6
glucose tolerance, blood sugar 0 min ([3]; 5 mg/kg, groups 4, 8): 6.9*
glucose tolerance, blood sugar 0 min ([3]; 10 mg/kg, groups 5, 9): 7.96
glucose tolerance, blood sugar 0 min ([3]; 20 mg/kg, groups 6, 10): 6.90*
glucose tolerance, blood sugar 30 min ([3]; 1 mg/kg, groups 3, 7): 12.5**
glucose tolerance, blood sugar 30 min ([3]; 5 mg/kg, groups 4, 8): 9.1**
glucose tolerance, blood sugar 30 min ([3]; 10 mg/kg, groups 5, 9): 16.95**
glucose tolerance, blood sugar 30 min ([3]; 20 mg/kg, groups 6, 10): 14.00**
glucose tolerance, blood sugar 60 min ([3]; 1 mg/kg, groups 3, 7): 10.2**
glucose tolerance, blood sugar 60 min ([3]; 5 mg/kg, groups 4, 8): 9.1**
glucose tolerance, blood sugar 60 min ([3]; 10 mg/kg, groups 5, 9): 13.20**
glucose tolerance, blood sugar 60 min ([3]; 20 mg/kg, groups 6, 10): 12.45**
glucose tolerance, blood sugar 120 min ([3]; 1 mg/kg, groups 3, 7): 8.2**
glucose tolerance, blood sugar 120 min ([3]; 5 mg/kg, groups 4, 8): 5.2**
glucose tolerance, blood sugar 120 min ([3]; 10 mg/kg, groups 5, 9): 10.93**
glucose tolerance, blood sugar 120 min ([3]; 20 mg/kg, groups 6, 10): 11.90**
ALT ([4]; 1 mg/kg, groups 3, 7): 72.1** U/L
AST ([4]; 1 mg/kg, groups 3, 7): 56.2** U/L
HDL-C ([4]; 1 mg/kg, groups 3, 7): 22.4 mg/dL
LDL-C ([4]; 1 mg/kg, groups 3, 7): 64* mg/dL
SOD ([4]; 1 mg/kg, groups 3, 7): 5.01** U/L
TC ([4]; 1 mg/kg, groups 3, 7): 132** mg/dL
TG ([4]; 1 mg/kg, groups 3, 7): 328** mg/dL
ALT ([4]; 5 mg/kg, groups 4, 8): 72.8** U/L
AST ([4]; 5 mg/kg, groups 4, 8): 63.5** U/L
HDL-C ([4]; 5 mg/kg, groups 4, 8): 22.4 mg/dL
LDL-C ([4]; 5 mg/kg, groups 4, 8): 64** mg/dL
SOD ([4]; 5 mg/kg, groups 4, 8): 4.24* U/L
TC ([4]; 5 mg/kg, groups 4, 8): 134** mg/dL
TG ([4]; 5 mg/kg, groups 4, 8): 310** mg/dL
ALT ([4]; 10 mg/kg, groups 5, 9): 67.1** U/L
AST ([4]; 10 mg/kg, groups 5, 9): 60.8** U/L
HDL-C ([4]; 10 mg/kg, groups 5, 9): 22.5 mg/dL
LDL-C ([4]; 10 mg/kg, groups 5, 9): 64** mg/dL
SOD ([4]; 10 mg/kg, groups 5, 9): 4.11** U/L
TC ([4]; 10 mg/kg, groups 5, 9): 131** mg/dL
TG ([4]; 10 mg/kg, groups 5, 9): 327** mg/dL
ALT ([4]; 20 mg/kg, groups 6, 10): 61.2** U/L
AST ([4]; 20 mg/kg, groups 6, 10): 60.5** U/L
HDL-C ([4]; 20 mg/kg, groups 6, 10): 22.1 mg/dL
LDL-C ([4]; 20 mg/kg, groups 6, 10): 53** mg/dL
SOD ([4]; 20 mg/kg, groups 6, 10): 4.52** U/L
TC ([4]; 20 mg/kg, groups 6, 10): 125** mg/dL
TG ([4]; 20 mg/kg, groups 6, 10): 310** mg/dL

CC(C)=CCC/C(C)=C/CCC1=C[C@@H](c2cc(O)ccc2O)OC1=O [S28, (S,E)-5-(2,5-dihydroxyphenyl)-3-(4,8-dimethylnona-3,7-dien-1-yl)furan-2(5H)-one]
IC50 [1]: 6.8 µM
fat vacuole in hepatocyte (liver tissue section, HE) [2]: almost disappear
glucose tolerance, blood sugar 0 min ([3]; 1 mg/kg, groups 3, 7): 9.5
glucose tolerance, blood sugar 0 min ([3]; 5 mg/kg, groups 4, 8): 6.8**
glucose tolerance, blood sugar 0 min ([3]; 10 mg/kg, groups 5, 9): 7.6*
glucose tolerance, blood sugar 0 min ([3]; 20 mg/kg, groups 6, 10): 6.9**
glucose tolerance, blood sugar 30 min ([3]; 1 mg/kg, groups 3, 7): 11.3**
glucose tolerance, blood sugar 30 min ([3]; 5 mg/kg, groups 4, 8): 9.3**
glucose tolerance, blood sugar 30 min ([3]; 10 mg/kg, groups 5, 9): 16.9**
glucose tolerance, blood sugar 30 min ([3]; 20 mg/kg, groups 6, 10): 14.3**
glucose tolerance, blood sugar 60 min ([3]; 1 mg/kg, groups 3, 7): 10.5**
glucose tolerance, blood sugar 60 min ([3]; 5 mg/kg, groups 4, 8): 9.3**
glucose tolerance, blood sugar 60 min ([3]; 10 mg/kg, groups 5, 9): 13.2**
glucose tolerance, blood sugar 60 min ([3]; 20 mg/kg, groups 6, 10): 12.4**
glucose tolerance, blood sugar 120 min ([3]; 1 mg/kg, groups 3, 7): 8.3**
glucose tolerance, blood sugar 120 min ([3]; 5 mg/kg, groups 4, 8): 5.1**
glucose tolerance, blood sugar 120 min ([3]; 10 mg/kg, groups 5, 9): 10.9**
glucose tolerance, blood sugar 120 min ([3]; 20 mg/kg, groups 6, 10): 11.9**
ALT ([4]; 1 mg/kg, groups 3, 7): 72.5** U/L
AST ([4]; 1 mg/kg, groups 3, 7): 56.5** U/L
HDL-C ([4]; 1 mg/kg, groups 3, 7): 22.1 mg/dL
LDL-C ([4]; 1 mg/kg, groups 3, 7): 64** mg/dL
SOD ([4]; 1 mg/kg, groups 3, 7): 5.12** U/L
TC ([4]; 1 mg/kg, groups 3, 7): 134** mg/dL
TG ([4]; 1 mg/kg, groups 3, 7): 325** mg/dL
ALT ([4]; 5 mg/kg, groups 4, 8): 71.2** U/L
AST ([4]; 5 mg/kg, groups 4, 8): 63.6** U/L
HDL-C ([4]; 5 mg/kg, groups 4, 8): 22.3 mg/dL
LDL-C ([4]; 5 mg/kg, groups 4, 8): 69* mg/dL
SOD ([4]; 5 mg/kg, groups 4, 8): 4.25* U/L
TC ([4]; 5 mg/kg, groups 4, 8): 134** mg/dL
TG ([4]; 5 mg/kg, groups 4, 8): 312** mg/dL
ALT ([4]; 10 mg/kg, groups 5, 9): 62.5** U/L
AST ([4]; 10 mg/kg, groups 5, 9): 60.6** U/L
HDL-C ([4]; 10 mg/kg, groups 5, 9): 22.5 mg/dL
LDL-C ([4]; 10 mg/kg, groups 5, 9): 69* mg/dL
SOD ([4]; 10 mg/kg, groups 5, 9): 4.12* U/L
TC ([4]; 10 mg/kg, groups 5, 9): 135** mg/dL
TG ([4]; 10 mg/kg, groups 5, 9): 331** mg/dL
ALT ([4]; 20 mg/kg, groups 6, 10): 61.5** U/L
AST ([4]; 20 mg/kg, groups 6, 10): 60.6** U/L
HDL-C ([4]; 20 mg/kg, groups 6, 10): 22.4 mg/dL
LDL-C ([4]; 20 mg/kg, groups 6, 10): 54** mg/dL
SOD ([4]; 20 mg/kg, groups 6, 10): 4.34* U/L
TC ([4]; 20 mg/kg, groups 6, 10): 123** mg/dL
TG ([4]; 20 mg/kg, groups 6, 10): 312** mg/dL

Source: patent US10441562B2, “Aromatic farnesyl compound and application thereof” (INSTITUTE OF MICROBIOLOGY, CHINESE ACADEMY OF SCIENCES, priority 2015, dated 2019)
